According to ChEMBL document CHEMBL1201862, “PubChem BioAssay data set” (2004):
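Where inhibition never reached the appropriate level, the endpoint shown equals the highest concentration tested. Otherwise, values were interpolated linearly from a five-concentration, 48-hour dose response in 96-well plates. GI50 = concentration required for 50% inhibition of growth.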 Calls of active or inactive are those of the source. No stated cut-off is given here; in the data, active = GI50 up to about 1.1 µM and inactive = higher.

Tests used:
Test in all cases: DTP human tumour cell line panel, 48 h
MDA-MB-231 = test system: MDA-MB-231
UACC-257 = test system: UACC-257
LOX IMVI = test system: LOX IMVI
SF-295 = test system: SF-295
DU-145 = test system: DU-145
HOP-62 = test system: HOP-62
M14 = test system: M14
SK-MEL-5 = test system: SK-MEL-5
MDA-MB-435 = test system: MDA-MB-435
K562 = test system: K562
SW-620 = test system: SW-620
SF-268 = test system: SF-268
NCI-H522 = test system: NCI-H522
RPMI-8226 = test system: RPMI-8226
A549 = test system: A549
T47D = test system: T47D
TK-10 = test system: TK-10
SNB-75 = test system: SNB-75
A498 = test system: A498

Measured: GI50

COc1ccc(C2=CC(c3ccccc3)n3nnnc3N2)cc1 (stereo unspecified)
inactive: MDA-MB-231 > 100 µM | UACC-257 > 100 µM | LOX IMVI > 100 µM | SF-295 52.2 µM | DU-145 > 100 µM | HOP-62 40.6 µM | M14 > 100 µM | SK-MEL-5 > 100 µM | MDA-MB-435 > 100 µM | K562 > 100 µM | SW-620 > 100 µM | SF-268 74 µM | NCI-H522 > 100 µM | RPMI-8226 7.14 µM | A549 > 100 µM | T47D 56.9 µM

C/C=C(/C)C(=O)O[C@@H]1c2c(C)coc2C[C@H]2CC[C@H](O)[C@H](C)[C@]21C
inactive: MDA-MB-231 71.6 µM | UACC-257 34.2 µM | LOX IMVI 49.4 µM | SF-295 > 100 µM | DU-145 > 100 µM | TK-10 64.6 µM | HOP-62 > 100 µM | M14 54.1 µM | SK-MEL-5 35.6 µM | MDA-MB-435 38.5 µM | K562 38 µM | SW-620 24 µM | SF-268 70.8 µM | NCI-H522 60 µM | RPMI-8226 31.3 µM | T47D 68.9 µM

NC(CCCCP(=O)(O)O)C(=O)O (stereo unspecified)
inactive: MDA-MB-231 > 100 µM | SNB-75 > 100 µM | UACC-257 > 100 µM | LOX IMVI > 100 µM | SF-295 > 100 µM | DU-145 > 100 µM | TK-10 > 100 µM | M14 > 100 µM | SK-MEL-5 > 100 µM | MDA-MB-435 > 100 µM | K562 > 100 µM | SW-620 > 100 µM | SF-268 > 100 µM | NCI-H522 26.9 µM | RPMI-8226 > 100 µM | A549 > 100 µM | T47D > 100 µM

CCOC(=O)CCC(C(=O)OCC)n1nnc2ccc(Nc3c(C)[n+]([O-])c4cc(F)c(OCC)cc4[n+]3[O-])cc21 (stereo unspecified)
inactive: SNB-75 79.4 µM | UACC-257 21.2 µM | LOX IMVI 32.7 µM | SF-295 77.4 µM | DU-145 58.9 µM | TK-10 > 100 µM | HOP-62 > 100 µM | M14 62.4 µM | SK-MEL-5 50.8 µM | A498 > 100 µM | MDA-MB-435 42.9 µM | K562 41.4 µM | SW-620 > 100 µM | SF-268 28 µM | NCI-H522 61.7 µM | RPMI-8226 21.5 µM | A549 77.8 µM | T47D 30.2 µM

CC1(C)CCC2=C(O1)c1ccccc1/C(=N/c1ccc([N+](=O)[O-])cc1)C2=O
inactive: MDA-MB-231 17.7 µM | SNB-75 18.3 µM | UACC-257 16.5 µM | TK-10 18.6 µM | HOP-62 17.1 µM | M14 8.24 µM | SK-MEL-5 16.7 µM | A498 18.7 µM | K562 13.4 µM | SW-620 16.1 µM | SF-268 29.7 µM | NCI-H522 13.6 µM | A549 16.4 µM | T47D 11.8 µM
